According to EPA's ToxValDB 9.5:
“And” between values parts separate entries of the source, which are not always exact repeats. Identical values can stand only once. One block for each compound: values may come before it.

Legend:
Oryctolagus sp. = conditions: dermal, New Zealand; for LD50: acute
Rattus norvegicus [1] = tested on: Rattus norvegicus
Rattus norvegicus [2] = conditions: for LEL: uterotrophic, Active; for NOEL / LOEL: Hershberger
Rattus norvegicus [3] = conditions: for NEL: M/F, Blood: Hematology
[4] = reproduction developmental, duration: 4 weeks, inhalation, particle, Sprague-Dawley
[5] = short-term, duration: 4 weeks, oral, diet, Crl:CD(SD)
[6] = duration: 3 days, injection, subcutaneous
[7] = duration: 10 days, oral, gavage, Sprague-Dawley, active + Antiandrogenic + anti-androgenic
[8] = duration: 12 days, injection, subcutaneous, Wistar, active + Androgenic + androgenic

SMILES: c1ccc2sc(SN3CCOCC3)nc2c1 [N-Oxydiethylene-2-benzothiazylsulfenamide]
LD50 (Oryctolagus sp.; occlusive): > 5010 mg/kg | NOAEL (Oryctolagus sp.; reproduction developmental, duration: 21 days): 2000 mg/kg-day | LC50 (Rattus norvegicus [1]; acute, inhalation, particle): > 151 µg/mL | LD50 (Rattus norvegicus [1]; acute, oral): 7000 mg/kg | LD50 (Rattus norvegicus [1]; acute, oral, gavage, Sprague-Dawley): 12600 mg/kg and > 7940 mg/kg | LD50 (Rattus norvegicus [1]; acute, oral, gavage, Wistar): > 10000 mg/kg | NOAEL (Rattus norvegicus [1]; developmental, duration: 10 days, oral, gavage): 1000 mg/kg-day | NOAEL (Rattus norvegicus [1]; developmental, duration: 21 days, oral, diet, Wistar): 270 mg/kg-day | LOAEL (Rattus norvegicus [1]; [4]): 10.2 mg/m3 | NOAEL (Rattus norvegicus [1]; [4]): 9.8 mg/m3 | NOAEL (Rattus norvegicus [1]; reproduction developmental, duration: 10 days, oral, gavage, F): 100 mg/kg-day | NOAEL (Rattus norvegicus [1]; reproduction developmental, duration: 21 days, oral, diet, F, Wistar): 270 mg/kg-day | LOAEL (Rattus norvegicus [1]; [5]): 500 mg/kg-day | NOAEL (Rattus norvegicus [1]; [5]): 200 mg/kg-day

LEL (Rattus norvegicus [2]; duration: 3 days, oral): 4 mg/kg-day
SMILES: CCOC(=O)C(C)(C)Oc1ccc(Cl)cc1 [Clofibrate]

SMILES: Oc1ccccc1-c1ccccc1 [2-Phenylphenol]
NOEL (Rattus norvegicus [2]; duration: 10 days, oral, gavage, Sprague-Dawley, inactive + Negative + Negative + anti-androgenic + decrease in ASTs, NS (1.6 d) delay PPS / accompanied by "minor" increase in liver wt and…): 250 mg/kg-day

LEL (Rattus norvegicus [2]; [6]): 0.5 mg/kg-day
SMILES: Cl.O=C(c1ccc(OCCN2CCCCC2)cc1)c1c(-c2ccc(O)cc2)sc2cc(O)ccc12 [Raloxifene hydrochloride]

SMILES: CC[C@H](C)[C@H]1O[C@]2(C=C[C@@H]1C)C[C@@H]1C[C@@H](C/C=C(\C)[C@@H](O[C@H]3C[C@H](OC)[C@@H](O[C@H]4C[C@H](OC)[C@@H](O)[C@H](C)O4)[C@H](C)O3)[C@@H](C)/C=C/C=C3\CO[C@@H]4[C@H](O)C(C)=C[C@@H](C(=O)O1)[C@]34O)O2.CO[C@H]1C[C@H](O[C@H]2[C@H](C)O[C@@H](O[C@@H]3/C(C)=C/C[C@@H]4C[C@@H](C[C@]5(C=C[C@H](C)[C@@H](C(C)C)O5)O4)OC(=O)[C@@H]4C=C(C)[C@@H](O)[C@H]5OC/C(=C\C=C\[C@@H]3C)[C@]54O)C[C@@H]2OC)O[C@@H](C)[C@@H]1O [Abamectin]
NOEL (Rattus norvegicus [2]; duration: 10 days, oral, gavage, Sprague-Dawley, inactive + Negative + Negative + anti-androgenic + negative): 1.5 mg/kg-day

SMILES: FC(F)(F)N1C(F)(F)C(F)(F)OC(F)(F)C1(F)F [Perfluoro(N-methylmorpholine)]
NEL (Rattus norvegicus [3]; subchronic, duration: 13 weeks, inhalation, Sprague-Dawley, Unspecified + Eye: Ophthalmology, Unspecified + Multi-organ: Clinical Chemistry, Unspecified + Multi-organ: …): 607000 mg/m3 | NEL (Rattus norvegicus [3]; subchronic, duration: 30 days, oral, gavage, Crl:CD(SD) BR, Unspecified + Blood: Red Cell Morphology + Multi-organ: Clinical Chemistry, Unspecified + Multi-organ: Histopathology, …): 2000 mg/kg-day

SMILES: CCCCCCC(=O)O[C@H]1CC[C@H]2[C@@H]3CCC4=CC(=O)CC[C@]4(C)[C@H]3CC[C@]12C [Testosterone enanthate]
LOEL (Rattus norvegicus [2]; duration: 10 days, oral, gavage, Sprague-Dawley, active + Androgenic + Negative + androgenic): 50 mg/kg-day

LEL (Rattus norvegicus [2]; [6]): 200 mg/kg-day and 199 mg/kg-day
SMILES: CCCCC(CC)COC(=O)c1ccc(O)cc1 (stereo not drawn) [2-Ethylhexyl p-hydroxybenzoate]

SMILES: O=[N+]([O-])c1ccc(Oc2ccc(Cl)cc2Cl)cc1 [Nitrofen]
NOEL (Rattus norvegicus [3]; chronic, oral, diet, M, Wistar, heart: Heart weight + spleen: Spleen weight): 116 mg/kg-day | LOEL (Rattus norvegicus [3]; chronic, oral, diet, M, Wistar, kidney: Kidney weight + liver: Liver weight + testes: Testes weight): 116 mg/kg-day | NOEL (Rattus norvegicus [3]; chronic, oral, gavage, F, Wistar, heart: Heart weight + kidney: Kidney weight + liver: Liver weight): 127 mg/kg-day | LOEL (Rattus norvegicus [3]; chronic, oral, gavage, F, Wistar, spleen: Spleen weight): 127 mg/kg-day | LOEL (Rattus norvegicus [3]; subchronic, oral, diet, F, Wistar, heart: Heart weight + kidney: Kidney weight): 1280 mg/kg-day | LOEL (Rattus norvegicus [3]; subchronic, oral, diet, F, Wistar, liver: Liver weight): 10 mg/kg-day | NOEL (Rattus norvegicus [3]; subchronic, oral, diet, F, Wistar, spleen: Spleen weight): 1280 mg/kg-day | LOEL (Rattus norvegicus [3]; subchronic, oral, diet, M, Sprague-Dawley, Albumin + Cholesterol + Globulin + Glucose + Terminal body weight + Total protein): 186 mg/kg-day | LOEL (Rattus norvegicus [3]; subchronic, oral, diet, M, Sprague-Dawley, liver: Relative liver weight + Relative kidney weight + testes: Relative Testes weight): 37 mg/kg-day | LOEL (Rattus norvegicus [3]; subchronic, oral, diet, M, Wistar, heart: Heart weight + spleen: Spleen weight): 1150 mg/kg-day | LOEL (Rattus norvegicus [3]; subchronic, oral, diet, M, Wistar, kidney: Kidney Weight + testes: Testes weight): 230 mg/kg-day | LOEL (Rattus norvegicus [3]; subchronic, oral, diet, M, Wistar, liver: Liver weight): 46 mg/kg-day

SMILES: CCCSP(=O)(OCC)SCCC [Ethoprop]
NOEL (Rattus norvegicus [2]; duration: 10 days, oral, gavage, Sprague-Dawley, active + Negative + Antiandrogenic + anti-androgenic + decrease in serum testosterone, decrease in epididymal wt at 6 mg/kg / thyroid …): 8 mg/kg-day

SMILES: C[C@]12CC[C@@H]3c4ccc(OC(=O)c5ccccc5)cc4CC[C@H]3[C@@H]1CC[C@@H]2O [Estradiol benzoate]
LOEL (Rattus norvegicus [2]; duration: 7 days, injection, subcutaneous, Wistar, active + Androgenic + androgenic): 0.0025 mg/kg-day

SMILES: CCCCCCCCc1ccc(O)cc1 [4-Octylphenol]
LD50 (Rattus norvegicus [1]; acute, oral, gavage, albino): 1100 mg/kg and 1200 mg/kg and 1400 mg/kg | LEL (Rattus norvegicus [2]; duration: 4 days, oral): 100 mg/kg-day

SMILES: CC(C)CCCCCCCOP(=S)([S-])OCCCCCCCC(C)C.CC(C)CCCCCCCOP(=S)([S-])OCCCCCCCC(C)C.[Zn+2]
LD50 (Oryctolagus sp.): > 8000 mg/kg

LEL (Rattus norvegicus [2]; duration: 4 days, injection, intraperitoneal): 100 mg/kg-day
SMILES: CC#C[C@]1(O)CC[C@H]2[C@@H]3CCC4=CC(=O)CCC4=C3[C@@H](c3ccc(N(C)C)cc3)C[C@@]21C [Mifepristone]
LOEL (Rattus norvegicus [2]; [7]): 25 mg/kg-day | NOEL (Rattus norvegicus [2]; [7]): 10 mg/kg-day

SMILES: C[C@H]1CCC[C@@H](O)CCCCCc2cc(O)cc(O)c2C(=O)O1 [Taleranol]
LEL (Rattus norvegicus [2]; duration: 3 days, oral): 0.06 mg/day

SMILES: C[C@]12C=CC(=O)C[C@@H]1CC[C@@H]1[C@@H]2CC[C@@]2(C)[C@H]1CC[C@]2(C)O [Methyl-1-testosterone]
LOEL (Rattus norvegicus [2]; duration: 10 days, injection, subcutaneous, Wistar, active + Androgenic + androgenic): 1 mg/kg-day | LOEL (Rattus norvegicus [2]; [8]): 0.3 mg/kg-day | NOEL (Rattus norvegicus [2]; [8]): 0.03 mg/kg-day

SMILES: COC(=O)Nc1nc2ccccc2[nH]1 [Carbendazim]
LD50 (Rattus norvegicus [1]; acute, oral, gavage, Harlan Sprague Dawley): > 5050 mg/kg | NOEL (Rattus norvegicus [2]; duration: 10 days, oral, gavage, Wistar, inactive + Negative + Negative + Neither + effects on fertility, reduced testis/epididymal wt and abnormal histo in P0, fertility): 100 mg/kg-day
